Experimental data: ChEMBL document CHEMBL4330114 (Bioorg Med Chem, 2019)
In brackets after ≈: the same amount, converted by molar mass.

Tested on: not listed separately
Test: Solubility of the compound
Assay type: physicochemical
Settings: not given

solubility [µg/mL] | Structure (SMILES)
< 1 | Cc1cc(C#N)cc(C)c1Oc1nc(Nc2ccc(C#N)cc2)nc(N)c1Br [ETRAVIRINE]

Tested on: Human immunodeficiency virus 1
Test: Antiviral activity against wild type HIV1 3B infected in human MT4 cells assessed as inhibition of virus-induced cytopathic effect after 5 days by MTT assay
Assay type: functional, organism-based
Settings: Human immunodeficiency virus 1, 3B, MT4, 120 h

Structure (SMILES) | EC50 [µM]
N#Cc1cc(Cl)cc(Oc2c(C(F)(F)F)ccn(CC(=O)Nc3cn[nH]c3)c2=O)c1 | 0.0595
N#Cc1cc(Cl)cc(Oc2c(C(F)(F)F)ccn(CC(=O)Nc3ncn[nH]3)c2=O)c1 | 0.0548
N#Cc1cc(Cl)cc(Oc2c(C(F)(F)F)ccn(CC(=O)Nc3ccc(C(F)(F)F)cc3)c2=O)c1 | 12.3
CC(C)OC(=O)OCn1nc(Cn2ccc(C(F)(F)F)c(Oc3cc(Cl)cc(C#N)c3)c2=O)n(C)c1=O | 1.22
CS(=O)(=O)c1ccc(NC(=O)Cn2ccc(C(F)(F)F)c(Oc3cc(Cl)cc(C#N)c3)c2=O)cc1 | 42.1
Cn1c(Cn2ccc(C(F)(F)F)c(Oc3cc(Cl)cc(C#N)c3)c2=O)n[nH]c1=O [DORAVIRINE] | 0.013
Cn1c(Cn2ccc(C(F)(F)F)c(Oc3cc(Cl)cc(C#N)c3)c2=O)nn(COP(=O)(O)O)c1=O | 0.262

Tested on: Human immunodeficiency virus 1
Test: Antiviral activity against HIV1 RES056 containing reverse transcriptase K103N + Y181C mutant infected in human MT4 cells assessed as inhibition of virus-induced cytopathic effect after 5 days by MTT assay
Assay type: functional, organism-based
Settings: Human immunodeficiency virus 1, RES056, MT4, 120 h

Structure (SMILES) | EC50 [µM]
N#Cc1cc(Cl)cc(Oc2c(C(F)(F)F)ccn(CC(=O)Nc3cn[nH]c3)c2=O)c1 | 0.343
N#Cc1cc(Cl)cc(Oc2c(C(F)(F)F)ccn(CC(=O)Nc3ncn[nH]3)c2=O)c1 | 0.196
N#Cc1cc(Cl)cc(Oc2c(C(F)(F)F)ccn(CC(=O)Nc3ccc(C(F)(F)F)cc3)c2=O)c1 | > 82.3
CC(C)OC(=O)OCn1nc(Cn2ccc(C(F)(F)F)c(Oc3cc(Cl)cc(C#N)c3)c2=O)n(C)c1=O | > 231
CS(=O)(=O)c1ccc(NC(=O)Cn2ccc(C(F)(F)F)c(Oc3cc(Cl)cc(C#N)c3)c2=O)cc1 | > 112
Cn1c(Cn2ccc(C(F)(F)F)c(Oc3cc(Cl)cc(C#N)c3)c2=O)n[nH]c1=O [DORAVIRINE] | 0.015
Cn1c(Cn2ccc(C(F)(F)F)c(Oc3cc(Cl)cc(C#N)c3)c2=O)nn(COP(=O)(O)O)c1=O | > 234

Tested on: not listed separately
Test: Cytotoxicity against mock-infected human MT4 cells assessed as reduction in cell viability after 5 days by MTT assay
Assay type: cell-based
Settings: not given

Structure (SMILES) | CC50 at 120 h [µM]
N#Cc1cc(Cl)cc(Oc2c(C(F)(F)F)ccn(CC(=O)Nc3cn[nH]c3)c2=O)c1 | 46.1
N#Cc1cc(Cl)cc(Oc2c(C(F)(F)F)ccn(CC(=O)Nc3ncn[nH]3)c2=O)c1 | > 285
N#Cc1cc(Cl)cc(Oc2c(C(F)(F)F)ccn(CC(=O)Nc3ccc(C(F)(F)F)cc3)c2=O)c1 | 82.3
CC(C)OC(=O)OCn1nc(Cn2ccc(C(F)(F)F)c(Oc3cc(Cl)cc(C#N)c3)c2=O)n(C)c1=O | > 231
CS(=O)(=O)c1ccc(NC(=O)Cn2ccc(C(F)(F)F)c(Oc3cc(Cl)cc(C#N)c3)c2=O)cc1 | 112
Cn1c(Cn2ccc(C(F)(F)F)c(Oc3cc(Cl)cc(C#N)c3)c2=O)n[nH]c1=O [DORAVIRINE] | > 294
Cn1c(Cn2ccc(C(F)(F)F)c(Oc3cc(Cl)cc(C#N)c3)c2=O)nn(COP(=O)(O)O)c1=O | > 234

Tested on: not listed separately
Test: Selectivity index, ratio of CC50 for mock-infected human MT4 cells to EC50 for wild type HIV1 3B infected in human MT4 cells
Assay type: toxicity, cell-based
Settings: read-out: Selectivity Index

Structure (SMILES) | selectivity ratio
N#Cc1cc(Cl)cc(Oc2c(C(F)(F)F)ccn(CC(=O)Nc3cn[nH]c3)c2=O)c1 | 775
N#Cc1cc(Cl)cc(Oc2c(C(F)(F)F)ccn(CC(=O)Nc3ncn[nH]3)c2=O)c1 | > 5200
N#Cc1cc(Cl)cc(Oc2c(C(F)(F)F)ccn(CC(=O)Nc3ccc(C(F)(F)F)cc3)c2=O)c1 | 7
CC(C)OC(=O)OCn1nc(Cn2ccc(C(F)(F)F)c(Oc3cc(Cl)cc(C#N)c3)c2=O)n(C)c1=O | > 189
CS(=O)(=O)c1ccc(NC(=O)Cn2ccc(C(F)(F)F)c(Oc3cc(Cl)cc(C#N)c3)c2=O)cc1 | 3
Cn1c(Cn2ccc(C(F)(F)F)c(Oc3cc(Cl)cc(C#N)c3)c2=O)nn(COP(=O)(O)O)c1=O | > 893

Tested on: not listed separately
Test: Selectivity index, ratio of CC50 for mock-infected human MT4 cells to EC50 for HIV1 RES056 RES056 containing reverse transcriptase K103N + Y181C mutant infected in human MT4 cells
Assay type: toxicity, cell-based
Settings: read-out: Selectivity Index

Structure (SMILES) | selectivity ratio
N#Cc1cc(Cl)cc(Oc2c(C(F)(F)F)ccn(CC(=O)Nc3cn[nH]c3)c2=O)c1 | 134
N#Cc1cc(Cl)cc(Oc2c(C(F)(F)F)ccn(CC(=O)Nc3ncn[nH]3)c2=O)c1 | > 1450
N#Cc1cc(Cl)cc(Oc2c(C(F)(F)F)ccn(CC(=O)Nc3ccc(C(F)(F)F)cc3)c2=O)c1 | < 1
CC(C)OC(=O)OCn1nc(Cn2ccc(C(F)(F)F)c(Oc3cc(Cl)cc(C#N)c3)c2=O)n(C)c1=O | 1
CS(=O)(=O)c1ccc(NC(=O)Cn2ccc(C(F)(F)F)c(Oc3cc(Cl)cc(C#N)c3)c2=O)cc1 | < 1
Cn1c(Cn2ccc(C(F)(F)F)c(Oc3cc(Cl)cc(C#N)c3)c2=O)nn(COP(=O)(O)O)c1=O | 1

Tested on: not listed separately
Test: Selectivity index, ratio of CC50 for mock-infected human MT4 cells to EC50 for HIV2 ROD infected in human MT4 cells
Assay type: toxicity, cell-based
Settings: read-out: Selectivity Index

Structure (SMILES) | selectivity ratio
N#Cc1cc(Cl)cc(Oc2c(C(F)(F)F)ccn(CC(=O)Nc3cn[nH]c3)c2=O)c1 | ≤ 1
N#Cc1cc(Cl)cc(Oc2c(C(F)(F)F)ccn(CC(=O)Nc3ncn[nH]3)c2=O)c1 | > 2
N#Cc1cc(Cl)cc(Oc2c(C(F)(F)F)ccn(CC(=O)Nc3ccc(C(F)(F)F)cc3)c2=O)c1 | < 1
CC(C)OC(=O)OCn1nc(Cn2ccc(C(F)(F)F)c(Oc3cc(Cl)cc(C#N)c3)c2=O)n(C)c1=O | > 2
CS(=O)(=O)c1ccc(NC(=O)Cn2ccc(C(F)(F)F)c(Oc3cc(Cl)cc(C#N)c3)c2=O)cc1 | < 1
Cn1c(Cn2ccc(C(F)(F)F)c(Oc3cc(Cl)cc(C#N)c3)c2=O)nn(COP(=O)(O)O)c1=O | 1

Target: Human immunodeficiency virus type 1 reverse transcriptase (Human immunodeficiency virus 1, UniProt Q72547)
Test: Inhibition of recombinant wild type HIV1 reverse transcriptase assessed as reduction in biotin-dUTP incorporation using poly(A)/oligo(dT)15 as template/primer after 1 hr by ELISA
Settings: not given

Structure (SMILES) | IC50 [µM]
N#Cc1cc(Cl)cc(Oc2c(C(F)(F)F)ccn(CC(=O)Nc3cn[nH]c3)c2=O)c1 | 1.25
N#Cc1cc(Cl)cc(Oc2c(C(F)(F)F)ccn(CC(=O)Nc3ncn[nH]3)c2=O)c1 | 0.522
N#Cc1cc(Cl)cc(Oc2c(C(F)(F)F)ccn(CC(=O)Nc3ccc(C(F)(F)F)cc3)c2=O)c1 | 30.1
CC(C)OC(=O)OCn1nc(Cn2ccc(C(F)(F)F)c(Oc3cc(Cl)cc(C#N)c3)c2=O)n(C)c1=O | 2.11
CS(=O)(=O)c1ccc(NC(=O)Cn2ccc(C(F)(F)F)c(Oc3cc(Cl)cc(C#N)c3)c2=O)cc1 | 1
Cn1c(Cn2ccc(C(F)(F)F)c(Oc3cc(Cl)cc(C#N)c3)c2=O)n[nH]c1=O [DORAVIRINE] | 0.019
Cn1c(Cn2ccc(C(F)(F)F)c(Oc3cc(Cl)cc(C#N)c3)c2=O)nn(COP(=O)(O)O)c1=O | 0.93

Tested on: not listed separately
Test: Aqueous solubility of the compound in water at pH 7.0 after overnight incubation by HPLC-UV analysis
Assay type: physicochemical
Settings: not given

Structure (SMILES) | solubility [µg/mL]
CC(C)OC(=O)OCn1nc(Cn2ccc(C(F)(F)F)c(Oc3cc(Cl)cc(C#N)c3)c2=O)n(C)c1=O | 27 (≈ 49.8 µM)
Cn1c(Cn2ccc(C(F)(F)F)c(Oc3cc(Cl)cc(C#N)c3)c2=O)nn(COP(=O)(O)O)c1=O | 4560 (≈ 8510 µM)

Tested on: not listed separately
Test: Aqueous solubility of the compound in phosphate buffer of pH 7.4 after overnight incubation by HPLC-UV analysis
Assay type: physicochemical
Settings: not given

Structure (SMILES) | solubility [µg/mL]
CC(C)OC(=O)OCn1nc(Cn2ccc(C(F)(F)F)c(Oc3cc(Cl)cc(C#N)c3)c2=O)n(C)c1=O | 29 (≈ 53.5 µM)
Cn1c(Cn2ccc(C(F)(F)F)c(Oc3cc(Cl)cc(C#N)c3)c2=O)nn(COP(=O)(O)O)c1=O | 5190 (≈ 9680 µM)

Tested on: not listed separately
Test: Aqueous solubility of the compound at phosphate buffer of pH 2.0 after overnight incubation by HPLC-UV analysis
Assay type: physicochemical
Settings: not given

Structure (SMILES) | solubility [µg/mL]
CC(C)OC(=O)OCn1nc(Cn2ccc(C(F)(F)F)c(Oc3cc(Cl)cc(C#N)c3)c2=O)n(C)c1=O | 14 (≈ 25.8 µM)
Cn1c(Cn2ccc(C(F)(F)F)c(Oc3cc(Cl)cc(C#N)c3)c2=O)nn(COP(=O)(O)O)c1=O | 4220 (≈ 7870 µM)

Tested on: not listed separately
Test: Half life of the compound in phosphate buffer of pH 2.0 by HPLC-UV analysis
Assay type: physicochemical
Settings: not given

Structure (SMILES) | half-life [h]
Cn1c(Cn2ccc(C(F)(F)F)c(Oc3cc(Cl)cc(C#N)c3)c2=O)nn(COP(=O)(O)O)c1=O | > 24

Tested on: not listed separately
Test: Half life of the compound in phosphate buffer of pH 7.4 by HPLC-UV analysis
Assay type: physicochemical
Settings: not given

Structure (SMILES) | half-life [h]
Cn1c(Cn2ccc(C(F)(F)F)c(Oc3cc(Cl)cc(C#N)c3)c2=O)nn(COP(=O)(O)O)c1=O | > 24

Tested on: Human immunodeficiency virus 1
Test: Potency index, ratio of lamivudine EC50 to compound EC50 for antiviral activity against wild type HIV1 3B infected in human MT4 cells
Assay type: functional
Settings: not given

Structure (SMILES) | Ratio EC50
N#Cc1cc(Cl)cc(Oc2c(C(F)(F)F)ccn(CC(=O)Nc3ncn[nH]3)c2=O)c1 | 234

Tested on: Human immunodeficiency virus 2
Test: Antiviral activity against HIV2 ROD infected in human MT4 cells assessed as inhibition of virus-induced cytopathic effect after 5 days by MTT assay
Settings: Human immunodeficiency virus 2, ISOLATE ROD, MT4, 120 h

Structure (SMILES) | EC50 [µM]
N#Cc1cc(Cl)cc(Oc2c(C(F)(F)F)ccn(CC(=O)Nc3cn[nH]c3)c2=O)c1 | ≥ 33.4
N#Cc1cc(Cl)cc(Oc2c(C(F)(F)F)ccn(CC(=O)Nc3ncn[nH]3)c2=O)c1 | 182
N#Cc1cc(Cl)cc(Oc2c(C(F)(F)F)ccn(CC(=O)Nc3ccc(C(F)(F)F)cc3)c2=O)c1 | > 82.3
CC(C)OC(=O)OCn1nc(Cn2ccc(C(F)(F)F)c(Oc3cc(Cl)cc(C#N)c3)c2=O)n(C)c1=O | 152
CS(=O)(=O)c1ccc(NC(=O)Cn2ccc(C(F)(F)F)c(Oc3cc(Cl)cc(C#N)c3)c2=O)cc1 | > 112
Cn1c(Cn2ccc(C(F)(F)F)c(Oc3cc(Cl)cc(C#N)c3)c2=O)n[nH]c1=O [DORAVIRINE] | 142
Cn1c(Cn2ccc(C(F)(F)F)c(Oc3cc(Cl)cc(C#N)c3)c2=O)nn(COP(=O)(O)O)c1=O | > 234
